Results taken from PMC5540273, “Progress towards a public chemogenomic set for protein kinases and a call for contributions” (PLoS ONE, 2017).

biological target: T1, BMPR2 (Homo sapiens, UniProt Q13873); experiment: KINOMEscan competition binding; details: read-out: %Inh BMPR2
T1 sequence (Q13873 27-1038): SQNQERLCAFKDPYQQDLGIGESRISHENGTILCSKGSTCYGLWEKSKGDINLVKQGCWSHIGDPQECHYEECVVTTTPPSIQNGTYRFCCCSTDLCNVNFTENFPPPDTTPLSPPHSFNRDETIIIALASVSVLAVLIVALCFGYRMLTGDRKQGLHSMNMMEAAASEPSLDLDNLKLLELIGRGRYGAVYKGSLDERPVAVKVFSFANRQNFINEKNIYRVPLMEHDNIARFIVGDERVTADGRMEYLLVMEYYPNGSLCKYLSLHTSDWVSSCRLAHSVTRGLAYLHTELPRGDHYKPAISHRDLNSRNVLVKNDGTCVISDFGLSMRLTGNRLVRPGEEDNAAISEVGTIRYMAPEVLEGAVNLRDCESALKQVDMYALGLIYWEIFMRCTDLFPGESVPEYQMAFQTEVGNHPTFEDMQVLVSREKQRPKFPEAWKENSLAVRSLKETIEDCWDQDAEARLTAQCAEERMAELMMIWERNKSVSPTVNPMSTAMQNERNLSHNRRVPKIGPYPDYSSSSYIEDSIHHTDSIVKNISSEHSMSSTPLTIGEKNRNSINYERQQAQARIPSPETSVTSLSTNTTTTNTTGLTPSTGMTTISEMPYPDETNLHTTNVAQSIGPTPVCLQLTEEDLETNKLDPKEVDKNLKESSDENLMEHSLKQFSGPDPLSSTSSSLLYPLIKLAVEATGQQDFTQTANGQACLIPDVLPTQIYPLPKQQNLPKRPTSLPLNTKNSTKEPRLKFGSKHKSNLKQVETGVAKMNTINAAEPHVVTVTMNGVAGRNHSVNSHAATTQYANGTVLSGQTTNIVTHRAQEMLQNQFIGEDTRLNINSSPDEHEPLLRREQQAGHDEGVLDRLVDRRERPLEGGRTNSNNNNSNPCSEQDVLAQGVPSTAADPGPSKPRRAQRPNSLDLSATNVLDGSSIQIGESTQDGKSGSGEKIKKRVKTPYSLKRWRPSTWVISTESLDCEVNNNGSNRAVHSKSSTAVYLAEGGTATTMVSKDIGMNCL

First: O=c1cc(N2CCOCC2)nc2n(Cc3cccc(Cl)c3Cl)c(C3CC3)nn12 [UNC10225469A]
Second: CS(=O)(=O)Cc1ccc(Nc2nccc(-c3c(-c4cccc(NC(=O)C5CCCCC5)c4)nn4ncccc34)n2)cc1 [UNC10225159A]
The inhibition at 1 µM of the first is lower: 13% for the first, 24% for the second.

Going from Cn1cc(-c2cnc(N)c3c(-c4ccc5c(c4)CCN5C(=O)Cc4ccccc4)csc23)cn1 [UNC10225012A] to COc1cccc(OC)c1C(=O)Nc1cccc(-c2nn3ccccc3c2-c2ccnc(Nc3cccc(F)c3)n2)c1 [UNC10225310A], the inhibition at 1 µM falls from 6% to 0%.

Work on Cc1ccc(NC(=O)Nc2cccc(C(F)(F)F)c2)cc1 [UNC10225187A] yielded an inhibition at 1 µM of 1%.

biological target: CAMK1B (Homo sapiens, UniProt Q6P2M8); experiment: KINOMEscan competition binding; details: read-out: %Inh CAMK1B
Sequence (Q6P2M8 whole entry): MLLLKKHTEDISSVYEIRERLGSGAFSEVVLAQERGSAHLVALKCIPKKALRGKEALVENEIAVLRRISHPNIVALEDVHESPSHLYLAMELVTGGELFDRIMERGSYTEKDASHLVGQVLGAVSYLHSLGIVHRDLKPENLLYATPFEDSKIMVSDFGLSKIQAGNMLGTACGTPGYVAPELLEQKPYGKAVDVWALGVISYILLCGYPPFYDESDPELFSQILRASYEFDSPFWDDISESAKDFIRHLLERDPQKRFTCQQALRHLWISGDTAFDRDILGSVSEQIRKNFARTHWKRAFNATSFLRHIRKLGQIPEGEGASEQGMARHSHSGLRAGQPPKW

O=c1cc(N2CCOCC2)nc2n(Cc3cccc(Cl)c3Cl)c(C3CC3)nn12 [UNC10225469A] and CS(=O)(=O)Cc1ccc(Nc2nccc(-c3c(-c4cccc(NC(=O)C5CCCCC5)c4)nn4ncccc34)n2)cc1 [UNC10225159A] are the same in inhibition at 1 µM: 0% for the first, 0% for the second.

Cn1cc(-c2cnc(N)c3c(-c4ccc5c(c4)CCN5C(=O)Cc4ccccc4)csc23)cn1 [UNC10225012A] and COc1cccc(OC)c1C(=O)Nc1cccc(-c2nn3ccccc3c2-c2ccnc(Nc3cccc(F)c3)n2)c1 [UNC10225310A] are the same in inhibition at 1 µM: 0% for the first, 0% for the second.

With Cc1ccc(NC(=O)Nc2cccc(C(F)(F)F)c2)cc1 [UNC10225187A] the inhibition at 1 µM was 0%.

biological target: CAMK2G (Homo sapiens, UniProt Q13555); experiment: KINOMEscan competition binding; details: read-out: %Inh CAMK2G
Sequence (Q13555 whole entry): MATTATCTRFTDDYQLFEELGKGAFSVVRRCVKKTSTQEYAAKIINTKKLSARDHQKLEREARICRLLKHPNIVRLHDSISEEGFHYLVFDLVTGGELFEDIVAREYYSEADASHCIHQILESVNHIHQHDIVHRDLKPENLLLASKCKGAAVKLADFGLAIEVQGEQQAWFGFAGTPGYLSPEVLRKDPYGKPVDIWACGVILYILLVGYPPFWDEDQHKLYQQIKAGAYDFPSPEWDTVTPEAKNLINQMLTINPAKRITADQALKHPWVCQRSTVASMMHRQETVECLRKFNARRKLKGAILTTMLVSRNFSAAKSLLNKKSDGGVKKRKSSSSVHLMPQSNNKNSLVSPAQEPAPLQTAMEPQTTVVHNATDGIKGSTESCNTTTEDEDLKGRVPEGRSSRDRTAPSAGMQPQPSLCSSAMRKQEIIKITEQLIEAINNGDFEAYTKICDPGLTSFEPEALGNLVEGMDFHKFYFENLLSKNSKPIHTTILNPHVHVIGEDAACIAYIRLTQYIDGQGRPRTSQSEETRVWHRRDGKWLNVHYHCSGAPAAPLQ

O=c1cc(N2CCOCC2)nc2n(Cc3cccc(Cl)c3Cl)c(C3CC3)nn12 [UNC10225469A] and CS(=O)(=O)Cc1ccc(Nc2nccc(-c3c(-c4cccc(NC(=O)C5CCCCC5)c4)nn4ncccc34)n2)cc1 [UNC10225159A] are the same in inhibition at 1 µM: 0% for the first, 0% for the second.

Compared with Cn1cc(-c2cnc(N)c3c(-c4ccc5c(c4)CCN5C(=O)Cc4ccccc4)csc23)cn1 [UNC10225012A], COc1cccc(OC)c1C(=O)Nc1cccc(-c2nn3ccccc3c2-c2ccnc(Nc3cccc(F)c3)n2)c1 [UNC10225310A] is lower in inhibition at 1 µM: 13% for the first, 0% for the second.

Compound Cc1ccc(NC(=O)Nc2cccc(C(F)(F)F)c2)cc1 [UNC10225187A] has an inhibition at 1 µM of 4%.

biological target: CLK1 (Homo sapiens, UniProt P49759); experiment: KINOMEscan competition binding; details: read-out: %Inh CLK1
Sequence (P49759 whole entry): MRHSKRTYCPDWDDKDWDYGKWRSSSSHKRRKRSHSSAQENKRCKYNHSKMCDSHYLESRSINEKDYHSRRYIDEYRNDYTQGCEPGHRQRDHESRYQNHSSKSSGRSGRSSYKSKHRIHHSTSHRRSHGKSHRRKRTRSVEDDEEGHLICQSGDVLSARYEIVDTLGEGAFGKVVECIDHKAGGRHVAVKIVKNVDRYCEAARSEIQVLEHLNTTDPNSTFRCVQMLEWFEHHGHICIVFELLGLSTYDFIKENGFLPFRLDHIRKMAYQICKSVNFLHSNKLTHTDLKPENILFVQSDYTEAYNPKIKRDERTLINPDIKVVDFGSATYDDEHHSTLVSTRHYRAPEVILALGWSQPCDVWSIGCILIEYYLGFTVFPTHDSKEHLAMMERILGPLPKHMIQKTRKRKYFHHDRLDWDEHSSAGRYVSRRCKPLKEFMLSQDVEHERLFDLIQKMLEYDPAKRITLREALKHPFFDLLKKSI

First: O=c1cc(N2CCOCC2)nc2n(Cc3cccc(Cl)c3Cl)c(C3CC3)nn12 [UNC10225469A]
Second: CS(=O)(=O)Cc1ccc(Nc2nccc(-c3c(-c4cccc(NC(=O)C5CCCCC5)c4)nn4ncccc34)n2)cc1 [UNC10225159A]
The inhibition at 1 µM of the first is higher: 27% for the first, 10% for the second.

First: Cn1cc(-c2cnc(N)c3c(-c4ccc5c(c4)CCN5C(=O)Cc4ccccc4)csc23)cn1 [UNC10225012A]
Second: COc1cccc(OC)c1C(=O)Nc1cccc(-c2nn3ccccc3c2-c2ccnc(Nc3cccc(F)c3)n2)c1 [UNC10225310A]
The inhibition at 1 µM of the first is lower: 15% for the first, 21% for the second.

With Cc1ccc(NC(=O)Nc2cccc(C(F)(F)F)c2)cc1 [UNC10225187A] the inhibition at 1 µM was 3%.

biological target: T2, CSF1R-autoinhibited (Homo sapiens, UniProt P07333); experiment: KINOMEscan competition binding; details: read-out: %Inh CSF1R-autoinhibited
T2 sequence (P07333 539-972 limits assumed): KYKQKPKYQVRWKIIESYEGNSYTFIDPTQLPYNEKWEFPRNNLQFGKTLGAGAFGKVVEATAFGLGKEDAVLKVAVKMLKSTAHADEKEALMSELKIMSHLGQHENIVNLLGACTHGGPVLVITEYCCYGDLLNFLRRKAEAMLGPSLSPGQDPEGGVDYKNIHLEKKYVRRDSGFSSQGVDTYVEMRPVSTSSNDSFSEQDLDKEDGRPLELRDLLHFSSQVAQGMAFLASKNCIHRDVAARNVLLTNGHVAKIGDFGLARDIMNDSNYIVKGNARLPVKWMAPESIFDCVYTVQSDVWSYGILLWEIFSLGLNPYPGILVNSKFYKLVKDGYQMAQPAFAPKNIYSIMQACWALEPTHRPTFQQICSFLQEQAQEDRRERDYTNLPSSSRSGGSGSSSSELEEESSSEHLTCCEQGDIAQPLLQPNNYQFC

Going from O=c1cc(N2CCOCC2)nc2n(Cc3cccc(Cl)c3Cl)c(C3CC3)nn12 [UNC10225469A] to CS(=O)(=O)Cc1ccc(Nc2nccc(-c3c(-c4cccc(NC(=O)C5CCCCC5)c4)nn4ncccc34)n2)cc1 [UNC10225159A], the inhibition at 1 µM rises from 0% to 35%.

First: Cn1cc(-c2cnc(N)c3c(-c4ccc5c(c4)CCN5C(=O)Cc4ccccc4)csc23)cn1 [UNC10225012A]
Second: COc1cccc(OC)c1C(=O)Nc1cccc(-c2nn3ccccc3c2-c2ccnc(Nc3cccc(F)c3)n2)c1 [UNC10225310A]
The inhibition at 1 µM of the first is higher: 39% for the first, 4% for the second.

Cc1ccc(NC(=O)Nc2cccc(C(F)(F)F)c2)cc1 [UNC10225187A] showed an inhibition at 1 µM of 0%.

biological target: ERK2 (Homo sapiens, UniProt P28482); experiment: KINOMEscan competition binding; details: read-out: %Inh ERK2
Sequence (P28482 whole entry): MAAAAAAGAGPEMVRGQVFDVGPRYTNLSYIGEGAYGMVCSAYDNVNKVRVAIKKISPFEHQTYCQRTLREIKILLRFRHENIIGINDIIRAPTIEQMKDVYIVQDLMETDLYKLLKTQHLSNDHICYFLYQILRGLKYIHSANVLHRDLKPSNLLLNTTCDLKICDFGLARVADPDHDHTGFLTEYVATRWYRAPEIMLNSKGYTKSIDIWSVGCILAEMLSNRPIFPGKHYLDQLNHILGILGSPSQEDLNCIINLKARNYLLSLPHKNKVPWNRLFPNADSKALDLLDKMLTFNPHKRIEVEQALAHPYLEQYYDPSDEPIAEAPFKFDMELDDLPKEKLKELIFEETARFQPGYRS

Going from O=c1cc(N2CCOCC2)nc2n(Cc3cccc(Cl)c3Cl)c(C3CC3)nn12 [UNC10225469A] to CS(=O)(=O)Cc1ccc(Nc2nccc(-c3c(-c4cccc(NC(=O)C5CCCCC5)c4)nn4ncccc34)n2)cc1 [UNC10225159A], the inhibition at 1 µM falls from 11% to 0%.

Going from Cn1cc(-c2cnc(N)c3c(-c4ccc5c(c4)CCN5C(=O)Cc4ccccc4)csc23)cn1 [UNC10225012A] to COc1cccc(OC)c1C(=O)Nc1cccc(-c2nn3ccccc3c2-c2ccnc(Nc3cccc(F)c3)n2)c1 [UNC10225310A], the inhibition at 1 µM rises from 0% to 6%.

For Cc1ccc(NC(=O)Nc2cccc(C(F)(F)F)c2)cc1 [UNC10225187A], the inhibition at 1 µM was 0%.

biological target: T3, GRK7 (Homo sapiens, UniProt Q8WTQ7); experiment: KINOMEscan competition binding; details: read-out: %Inh GRK7
T3 sequence (Q8WTQ7 1-553): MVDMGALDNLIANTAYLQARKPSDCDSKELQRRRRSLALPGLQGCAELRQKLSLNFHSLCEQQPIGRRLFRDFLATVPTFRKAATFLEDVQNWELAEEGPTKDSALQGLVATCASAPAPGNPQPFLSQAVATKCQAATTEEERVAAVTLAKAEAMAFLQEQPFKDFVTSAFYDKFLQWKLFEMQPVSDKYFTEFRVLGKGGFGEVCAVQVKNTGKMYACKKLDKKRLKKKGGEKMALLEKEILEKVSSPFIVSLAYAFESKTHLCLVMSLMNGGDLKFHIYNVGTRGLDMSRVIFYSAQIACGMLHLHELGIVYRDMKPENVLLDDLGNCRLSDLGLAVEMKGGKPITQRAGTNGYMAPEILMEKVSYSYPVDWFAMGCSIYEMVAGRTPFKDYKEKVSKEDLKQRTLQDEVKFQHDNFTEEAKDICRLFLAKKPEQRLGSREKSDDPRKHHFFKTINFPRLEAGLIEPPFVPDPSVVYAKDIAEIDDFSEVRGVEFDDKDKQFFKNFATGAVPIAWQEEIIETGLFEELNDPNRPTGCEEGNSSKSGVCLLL

Compared with O=c1cc(N2CCOCC2)nc2n(Cc3cccc(Cl)c3Cl)c(C3CC3)nn12 [UNC10225469A], CS(=O)(=O)Cc1ccc(Nc2nccc(-c3c(-c4cccc(NC(=O)C5CCCCC5)c4)nn4ncccc34)n2)cc1 [UNC10225159A] is higher in inhibition at 1 µM: 0% for the first, 5% for the second.

Going from Cn1cc(-c2cnc(N)c3c(-c4ccc5c(c4)CCN5C(=O)Cc4ccccc4)csc23)cn1 [UNC10225012A] to COc1cccc(OC)c1C(=O)Nc1cccc(-c2nn3ccccc3c2-c2ccnc(Nc3cccc(F)c3)n2)c1 [UNC10225310A], the inhibition at 1 µM rises from 6% to 17%.

In the case of Cc1ccc(NC(=O)Nc2cccc(C(F)(F)F)c2)cc1 [UNC10225187A], the inhibition at 1 µM is reported as 10%.

biological target: LYN (Homo sapiens, UniProt P07948); experiment: KINOMEscan competition binding; details: read-out: %Inh LYN
Sequence (P07948 whole entry): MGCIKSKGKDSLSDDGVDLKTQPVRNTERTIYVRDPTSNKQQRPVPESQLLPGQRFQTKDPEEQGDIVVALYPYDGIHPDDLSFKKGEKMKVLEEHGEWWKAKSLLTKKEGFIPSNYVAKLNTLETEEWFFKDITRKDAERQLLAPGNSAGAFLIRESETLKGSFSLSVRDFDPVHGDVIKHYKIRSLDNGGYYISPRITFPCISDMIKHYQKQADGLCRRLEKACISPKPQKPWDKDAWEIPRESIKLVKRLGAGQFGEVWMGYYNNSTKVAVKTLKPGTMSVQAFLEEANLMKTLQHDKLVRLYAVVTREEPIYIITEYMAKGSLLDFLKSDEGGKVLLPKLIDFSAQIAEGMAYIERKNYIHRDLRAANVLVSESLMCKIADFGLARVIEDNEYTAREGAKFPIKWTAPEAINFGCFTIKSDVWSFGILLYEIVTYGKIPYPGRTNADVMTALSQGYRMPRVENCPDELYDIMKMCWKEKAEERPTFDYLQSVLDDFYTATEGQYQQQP

First: O=c1cc(N2CCOCC2)nc2n(Cc3cccc(Cl)c3Cl)c(C3CC3)nn12 [UNC10225469A]
Second: CS(=O)(=O)Cc1ccc(Nc2nccc(-c3c(-c4cccc(NC(=O)C5CCCCC5)c4)nn4ncccc34)n2)cc1 [UNC10225159A]
The inhibition at 1 µM of the first is lower: 0% for the first, 16% for the second.

Going from Cn1cc(-c2cnc(N)c3c(-c4ccc5c(c4)CCN5C(=O)Cc4ccccc4)csc23)cn1 [UNC10225012A] to COc1cccc(OC)c1C(=O)Nc1cccc(-c2nn3ccccc3c2-c2ccnc(Nc3cccc(F)c3)n2)c1 [UNC10225310A], the inhibition at 1 µM falls from 65% to 8%.

In the case of Cc1ccc(NC(=O)Nc2cccc(C(F)(F)F)c2)cc1 [UNC10225187A], the inhibition at 1 µM is reported as 0%.
